In patent US11512079B2, “Heterocycle substituted pyridine derivative antifungal agents” (Amplyx Pharmaceuticals, Inc., priority 2017, dated 2022) one finds MIC and minimal effective concentration data, which are given here for 22 compounds.

Holding throughout (format): cell-based
The subject of assay [1] is Cryptococcus gattii. Nature of the assay: In vitro antifungal assay (Example IX), microdilution broth, MIC. The following applies: minimum inhibitory concentration (≥50% inhibition), 35° C., 72 h (Cryptococcus), RPMI1640. Put shortly: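 MIC was determined from OD600 after 72 h at 35 °C for Cryptococcus, in RPMI1640 inoculated at 2.5×10^3 cells/mL. Compounds were tested as a 2-fold series from 2 to 0.0019 μg/mL final, added from DMSO intermediates at a 100-fold dilution.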

In assay [2] the test system is Rhizomucor pusillus 46342. As to the kind of experiment: In vitro antifungal assay (Example IX), microdilution broth, MEC. The following applies: minimum effective concentration (shortening of hyphae), 35° C., 40-48 h, RPMI1640. Put shortly: (§1)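 Read-out is the minimum effective concentration: lowest compound level causing shorter hyphae than in DMSO controls, echinocandin-style. Broth microdilution used conidia or spores harvested from agar plates, cleared of mycelium and clumps, at a final 1-2×10^4 spores/mL in RPMI1640.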
In general terms: Dilution methods test growth across graded concentrations, often in twofold steps.

In assay [3] the test system is Aspergillus fumigatus MYA3626. The description is as above. The following applies: minimum effective concentration (shortening of hyphae), 35° C., 40-48 h, RPMI1640. The essentials: as §1
The subject of assay [4] is Candida albicans 90028. Nature of the assay: In vitro antifungal assay (Example IX), microdilution broth, MIC. The following applies: minimum inhibitory concentration (≥50% inhibition), 35° C., 40-48 h, RPMI1640. The essentials:
(§2)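 Yeast inocula (2.5×10^3 cells/mL, RPMI1640) were exposed to twofold compound series reaching 2-0.0019 μg/mL final, per CLSI yeast methodology. Incubation at 35° C. ran 40-48 h for Candida albicans 90028 and 72 h for Cryptococcus neoformans H99. MIC endpoints were confirmed by absorbance at 600 nm.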

Assay [5] concerns Cryptococcus neoformans H99. The assay is described as above. The settings on record: minimum inhibitory concentration (≥50% inhibition), 35° C., 72 h, RPMI1640. Put shortly:
as §2

≈ marks a conversion by molar mass, not a printed value. Some results are limits rather than exact numbers.

`Nc1ncccc1-c1cc(Cc2ccc(Cn3cc(F)cn3)cc2)no1` [compound 4, 3-(3-(4-((4-fluoro-1H-pyrazol-1-yl)methyl)benzyl)isoxazol-5-yl)pyridin-2-amine]: the MIC in assay [1], in assay [4] and in assay [5] was 0.1 to 1 µg/mL (≈ 0.286 to 2.86 µM) in each case. Further, the results for the minimal effective concentration in assay [2] and in assay [3] were 0.1 to 1 µg/mL and 0.01 to 0.1 µg/mL, respectively.
Consider `C#CCOc1ccc(Cc2cc(-c3cccnc3N)on2)cn1` [Example 157, 3-(3-((6-(prop-2-yn-1-yloxy)pyridin-3-yl)methyl)isoxazol-5-yl)pyridin-2-amine], for which the MIC (as a rule, the least concentration at which growth counts as inhibited) in assay [1] was 0.1 to 1 µg/mL (≈ 0.326 to 3.26 µM); in assay [4], above 1 µg/mL; in assay [5], 0.1 to 1 µg/mL (≈ 0.326 to 3.26 µM). The minimal effective concentration in assay [2] and in assay [3] was 0.1 to 1 µg/mL each time.
Take `Nc1ncccc1-c1cc(Cc2ccc(OCc3cccnc3)nc2)no1` [compound 36, 3-(3-((6-(pyridin-3-ylmethoxy)pyridin-3-yl)methyl)isoxazol-5-yl)pyridin-2-amine]: the MIC in assay [1], in assay [4] and in assay [5] was 0.01 to 0.1 µg/mL (≈ 0.0278 to 0.278 µM) each time. The minimal effective concentration (in general, the smallest amount tested that counted as effective) in assay [2] is above 1 µg/mL; in assay [3] it was 0.01 to 0.1 µg/mL.
On to `Nc1ncccc1-c1cc(Cc2ccc(OCc3cccc(F)c3)cc2)no1` [Example 138, 3-(3-(4-((3-fluorobenzyl)oxy)benzyl)isoxazol-5-yl)pyridin-2-amine], for which the results for the MIC in assay [1], in assay [4] and in assay [5] were at most 0.01 µg/mL, 0.01 to 0.1 µg/mL (≈ 0.0266 to 0.266 µM) and 0.01 to 0.1 µg/mL (≈ 0.0266 to 0.266 µM), respectively. For the same compound, the minimal effective concentration in assay [2] was 0.1 to 1 µg/mL; in assay [3] it was 0.01 to 0.1 µg/mL.
With `Nc1ncccc1-c1cc(Cc2ccc(Oc3ncccn3)cc2)no1` [compound 243, 3-(3-(4-(pyrimidin-2-yloxy)benzyl)isoxazol-5-yl)pyridin-2-amine], the minimal inhibitory concentration (MIC) in assay [1], in assay [4] and in assay [5] was 0.1 to 1 µg/mL (≈ 0.29 to 2.9 µM) each time. In addition, the minimal effective concentration in assay [2] was above 1 µg/mL; in assay [3], 0.1 to 1 µg/mL.
On to `Cn1cc(Cc2ccc(Cc3cc(-c4cccnc4N)on3)cc2)cn1` [compound 11, 3-(3-(4-((1-methyl-1H-pyrazol-4-yl)methyl)benzyl)isoxazol-5-yl)pyridin-2-amine], for which the MIC in assay [1], in assay [4] and in assay [5] was 0.1 to 1 µg/mL (≈ 0.29 to 2.9 µM) in each case. Further, the minimal effective concentration in assay [2] was above 1 µg/mL; in assay [3], 0.01 to 0.1 µg/mL.
For `Nc1ncccc1-c1cc(Cc2ccc(Cc3cc(F)cc(F)c3)cc2)no1` [compound 212, 3-(3-(4-(3,5-difluorobenzyl)benzyl)isoxazol-5-yl)pyridin-2-amine], the minimum inhibitory concentration (MIC) lay in the range of 0.01 to 0.1 µg/mL (≈ 0.0265 to 0.265 µM) in assay [1], 0.1 to 1 µg/mL (≈ 0.265 to 2.65 µM) in assay [4] and 0.01 to 0.1 µg/mL (≈ 0.0265 to 0.265 µM) in assay [5]. The minimal effective concentration in assay [2] and in assay [3] was 0.1 to 1 µg/mL each time.
For `Nc1ncccc1-c1cc(Cc2ccc(OCCn3cccn3)nc2)no1` [Example 156, 3-(3-((6-(2-(1H-pyrazol-1-yl)ethoxy)pyridin-3-yl)methyl)isoxazol-5-yl)pyridin-2-amine], the MIC in assay [1] is above 1 µg/mL; in assay [4], 0.1 to 1 µg/mL (≈ 0.276 to 2.76 µM); in assay [5], 0.1 to 1 µg/mL (≈ 0.276 to 2.76 µM). Moreover, the minimal effective concentration in assay [2] and in assay [3] was above 1 µg/mL in each case.
For `Nc1ncccc1-c1cc(Cc2ccc(Nc3ccc(F)c(F)c3F)nc2)no1` [compound 245, 5-((5-(2-aminopyridin-3-yl)isoxazol-3-yl)methyl)-N-(2,3,4-trifluorophenyl)pyridin-2-amine], the minimal inhibitory concentration (MIC) in assay [1], in assay [4] and in assay [5] was 0.1 to 1 µg/mL (≈ 0.252 to 2.52 µM) each time. In addition, the results for the minimal effective concentration in assay [2] and in assay [3] were above 1 µg/mL and 0.1 to 1 µg/mL, respectively.
Consider `Nc1ncccc1-c1cc(Cc2ccc(OCc3ccnc(F)c3)nc2)no1` [Example 154, 3-(3-((6-((2-fluoropyridin-4-yl)methoxy)pyridin-3-yl)methyl)isoxazol-5-yl)pyridin-2-amine], for which the MIC in assay [1], in assay [4] and in assay [5] was 0.01 to 0.1 µg/mL (≈ 0.0265 to 0.265 µM) in each case. Further, the minimal effective concentration in assay [2] was 0.1 to 1 µg/mL; in assay [3] it was 0.01 to 0.1 µg/mL.
Regarding `Nc1ncccc1-c1cc(Cc2ccnc(OCc3ccccc3)c2)no1` [Example 148, 3-(3-((2-(benzyloxy)pyridin-4-yl)methyl)isoxazol-5-yl)pyridin-2-amine], the MIC in assay [1], in assay [4] and in assay [5] was 0.01 to 0.1 µg/mL (≈ 0.0279 to 0.279 µM) each time. In addition, the minimal effective concentration in assay [2] is 0.1 to 1 µg/mL; in assay [3], 0.01 to 0.1 µg/mL.
On to `Cc1cncc(COc2ccc(Cc3cc(-c4cccnc4N)on3)cc2)c1` [compound 114, 3-(3-(4-((5-methylpyridin-3-yl)methoxy)benzyl)isoxazol-5-yl)pyridin-2-amine], for which the MIC in assay [1], in assay [4] and in assay [5] was 0.1 to 1 µg/mL (≈ 0.269 to 2.69 µM) throughout. Further, the values for the minimal effective concentration in assay [2] and in assay [3] were above 1 µg/mL and 0.01 to 0.1 µg/mL, respectively.
On to `Nc1ncccc1-c1cc(Cc2ccc(SCc3ccccc3)nc2)no1` [compound 61, 3-(3-((6-(benzylthio)pyridin-3-yl)methyl)isoxazol-5-yl)pyridin-2-amine], for which the results for the minimum inhibitory concentration (MIC) in assay [1], in assay [4] and in assay [5] were 0.01 to 0.1 µg/mL (≈ 0.0267 to 0.267 µM), 0.01 to 0.1 µg/mL (≈ 0.0267 to 0.267 µM) and 0.1 to 1 µg/mL (≈ 0.267 to 2.67 µM), respectively. Further, the minimal effective concentration in assay [2] was above 1 µg/mL; in assay [3], 0.01 to 0.1 µg/mL.
`Nc1ncccc1-c1cc(Cc2ccc(CNc3cc(F)ccc3F)cc2)no1` [compound 196, 3-(3-(4-(((2,5-difluorophenyl)amino)methyl)benzyl)isoxazol-5-yl)pyridin-2-amine]: the figures for the MIC in assay [1], in assay [4] and in assay [5] were 0.1 to 1 µg/mL (≈ 0.255 to 2.55 µM), 0.01 to 0.1 µg/mL (≈ 0.0255 to 0.255 µM) and 0.01 to 0.1 µg/mL (≈ 0.0255 to 0.255 µM), respectively. Further, the minimal effective concentration in assay [2] and in assay [3] was 0.1 to 1 µg/mL throughout.
Take `Nc1ncccc1-c1cnn(Cc2ccc(OCc3ccccc3)nc2)c1` [compound 101, 3-(1-((6-(benzyloxy)pyridin-3-yl)methyl)-1H-pyrazol-4-yl)pyridin-2-amine]: the MIC was 0.01 to 0.1 µg/mL (≈ 0.028 to 0.28 µM) in assay [1], 0.1 to 1 µg/mL (≈ 0.28 to 2.8 µM) in assay [4] and 0.01 to 0.1 µg/mL (≈ 0.028 to 0.28 µM) in assay [5]. Further, the minimal effective concentration in assay [2] was above 1 µg/mL; in assay [3], 0.1 to 1 µg/mL.
As to `Nc1ncccc1-c1cc(Cc2ccc(OCc3cccc(Br)n3)nc2)no1` [compound 223, 3-(3-((6-((6-bromopyridin-2-yl)methoxy)pyridin-3-yl)methyl)isoxazol-5-yl)pyridin-2-amine], the MIC in assay [1] is 0.1 to 1 µg/mL (≈ 0.228 to 2.28 µM); in assay [4], 0.01 to 0.1 µg/mL (≈ 0.0228 to 0.228 µM); in assay [5] it was 0.1 to 1 µg/mL (≈ 0.228 to 2.28 µM). Besides, the minimal effective concentration in assay [2] is above 1 µg/mL; in assay [3], 0.01 to 0.1 µg/mL.
Turning to `Nc1ncccc1-c1cc(Cc2ccc(Oc3ccccc3F)nc2)no1` [compound 131, 3-(3-((6-(2-fluorophenoxy)pyridin-3-yl)methyl)isoxazol-5-yl)pyridin-2-amine], the MIC in assay [1], in assay [4] and in assay [5] was 0.01 to 0.1 µg/mL (≈ 0.0276 to 0.276 µM) throughout. Moreover, the minimal effective concentration in assay [2] lay within 0.1 to 1 µg/mL; in assay [3], 0.01 to 0.1 µg/mL.
Turning to `Nc1ncccc1-c1cc(Cc2ccc(OCc3cc(F)cc(F)c3)nc2)no1` [compound 84, 3-(3-((6-((3,5-difluorobenzyl)oxy)pyridin-3-yl)methyl)isoxazol-5-yl)pyridin-2-amine], the values for the MIC in assay [1], in assay [4] and in assay [5] were 0.1 to 1 µg/mL (≈ 0.254 to 2.54 µM), 0.01 to 0.1 µg/mL (≈ 0.0254 to 0.254 µM) and 0.01 to 0.1 µg/mL (≈ 0.0254 to 0.254 µM), respectively. Also, the minimal effective concentration in assay [2] was 0.1 to 1 µg/mL; in assay [3], 0.01 to 0.1 µg/mL.
In the case of `Nc1ncccc1-c1cc(Cc2ccc(OCCc3ccccc3F)nc2)no1` [compound 77, 3-(3-((6-(2-fluorophenethoxy)pyridin-3-yl)methyl)isoxazol-5-yl)pyridin-2-amine], the MIC in assay [1], in assay [4] and in assay [5] was 0.01 to 0.1 µg/mL (≈ 0.0256 to 0.256 µM) throughout. Also, the minimal effective concentration in assay [2] and in assay [3] was 0.1 to 1 µg/mL in each case.
In the case of `Nc1ncccc1-c1cc(Cc2ccc(CC3=CCCC3)cc2)no1` [compound 17, 3-(3-(4-(cyclopent-1-en-1-ylmethyl)benzyl)isoxazol-5-yl)pyridin-2-amine], the MIC in assay [1], in assay [4] and in assay [5] was 0.01 to 0.1 µg/mL (≈ 0.0302 to 0.302 µM) throughout. The minimal effective concentration lay in the range of 0.1 to 1 µg/mL in assay [2] and 0.01 to 0.1 µg/mL in assay [3].
Take `Nc1ncccc1-c1cc(Cc2ccc(CNc3nc(Cl)cs3)cc2)no1` [compound 34, N-(4-((5-(2-aminopyridin-3-yl)isoxazol-3-yl)methyl)benzyl)-4-chlorothiazol-2-amine]: the MIC is 0.1 to 1 µg/mL (≈ 0.251 to 2.51 µM) in assay [1], 0.01 to 0.1 µg/mL (≈ 0.0251 to 0.251 µM) in assay [4] and above 1 µg/mL in assay [5]. Besides, the minimal effective concentration in assay [2] and in assay [3] was 0.1 to 1 µg/mL throughout.
`Nc1ncccc1-c1cc(Cc2ccc(Cc3cccnc3)cc2)no1` [compound 9, 3-(3-(4-(pyridin-3-ylmethyl)benzyl)isoxazol-5-yl)pyridin-2-amine]: the values for the MIC in assay [1], in assay [4] and in assay [5] were 0.01 to 0.1 µg/mL (≈ 0.0292 to 0.292 µM), 0.01 to 0.1 µg/mL (≈ 0.0292 to 0.292 µM) and 0.1 to 1 µg/mL (≈ 0.292 to 2.92 µM), respectively. Besides, the minimal effective concentration in assay [2] and in assay [3] was 0.1 to 1 µg/mL throughout.
